From ChEMBL document CHEMBL1909046, “DrugMatrix in vitro pharmacology data”

Key:
[1] = biological target: Vasopressin V1a receptor (Homo sapiens, UniProt P37288); type: cell membranes, Membrane; details: hek293; also: in other assays of this panel Not Active means under 50% inhibition at 10 µM
[2] = biological target: D(3) dopamine receptor (Homo sapiens, UniProt P35462); experiment: DRUGMATRIX: Dopamine D3 radioligand binding (ligand: [3H] Spiperone); type: cell membranes, CHO, Membrane; details: cho
D(3) dopamine receptor, sequence (P35462 whole entry): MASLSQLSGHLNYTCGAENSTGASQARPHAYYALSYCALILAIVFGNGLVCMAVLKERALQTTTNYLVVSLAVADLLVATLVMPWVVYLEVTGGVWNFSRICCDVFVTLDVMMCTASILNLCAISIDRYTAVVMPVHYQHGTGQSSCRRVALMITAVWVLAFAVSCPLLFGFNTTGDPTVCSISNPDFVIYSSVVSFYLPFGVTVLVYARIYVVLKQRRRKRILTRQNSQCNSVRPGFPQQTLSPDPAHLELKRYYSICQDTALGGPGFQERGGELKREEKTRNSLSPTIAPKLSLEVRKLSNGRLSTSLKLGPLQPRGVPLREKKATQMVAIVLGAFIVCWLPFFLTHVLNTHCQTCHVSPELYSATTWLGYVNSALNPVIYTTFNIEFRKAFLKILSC

[3] = biological target: Sodium-dependent dopamine transporter (Homo sapiens, UniProt Q01959); experiment: DRUGMATRIX: Dopamine Transporter radioligand binding (ligand: [125I] RTI-55); type: cell membranes, CHO-K1, Membrane; details: cho-k1; Not Active = under 50% inhibition at 10 µM
Sodium-dependent dopamine transporter, sequence (Q01959 whole entry): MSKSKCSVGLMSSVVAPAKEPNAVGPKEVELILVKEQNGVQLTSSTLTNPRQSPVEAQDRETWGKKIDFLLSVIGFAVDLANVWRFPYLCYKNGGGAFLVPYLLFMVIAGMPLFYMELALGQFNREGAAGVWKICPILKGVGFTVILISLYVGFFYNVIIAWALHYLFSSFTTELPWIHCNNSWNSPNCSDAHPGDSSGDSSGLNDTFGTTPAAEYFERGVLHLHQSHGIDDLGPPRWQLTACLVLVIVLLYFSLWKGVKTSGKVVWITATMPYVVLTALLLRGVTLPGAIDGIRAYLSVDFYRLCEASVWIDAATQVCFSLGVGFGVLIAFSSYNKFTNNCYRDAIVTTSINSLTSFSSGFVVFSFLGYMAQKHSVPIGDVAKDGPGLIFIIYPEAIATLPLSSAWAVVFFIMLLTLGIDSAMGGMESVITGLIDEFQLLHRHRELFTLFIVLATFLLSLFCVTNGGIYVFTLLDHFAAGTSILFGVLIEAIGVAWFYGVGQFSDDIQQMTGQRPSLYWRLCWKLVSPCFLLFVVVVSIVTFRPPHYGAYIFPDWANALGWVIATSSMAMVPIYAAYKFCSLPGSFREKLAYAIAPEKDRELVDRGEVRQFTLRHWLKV

[4] = biological target: T1, Endothelin-1 receptor (Homo sapiens, UniProt P25101); type: cell membranes, Membrane; details: cho-k1; also: in other assays of this panel Not Active means under 50% inhibition at 10 µM
T1 sequence (P25101 whole entry): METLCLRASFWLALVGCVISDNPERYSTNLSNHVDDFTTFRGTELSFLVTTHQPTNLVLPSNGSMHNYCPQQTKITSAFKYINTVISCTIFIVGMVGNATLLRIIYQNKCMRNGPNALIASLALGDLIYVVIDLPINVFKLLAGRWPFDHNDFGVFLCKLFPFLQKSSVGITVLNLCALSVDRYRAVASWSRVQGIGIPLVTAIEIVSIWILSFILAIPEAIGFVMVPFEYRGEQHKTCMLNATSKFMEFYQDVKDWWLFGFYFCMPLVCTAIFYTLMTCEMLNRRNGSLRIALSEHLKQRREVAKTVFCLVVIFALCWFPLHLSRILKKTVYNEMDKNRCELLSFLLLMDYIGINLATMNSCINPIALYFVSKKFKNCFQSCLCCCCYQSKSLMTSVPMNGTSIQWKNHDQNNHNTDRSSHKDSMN

[5] = DRUGMATRIX: Phorbol Ester radioligand binding (ligand: [3H] PDBu); type: cell membranes, Mus musculus, ICR, Brain, Membrane; details: Not Active = under 50% inhibition at 10 µM
[6] = biological target: T2, Neutrophil elastase (Homo sapiens, UniProt P08246); type: tissue-based;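 also: inhibition of neutrophil elastase enzyme activity, measured with a p-nitroanilide-linked peptide substrate; in other assays of this panel Not Active means under 50% inhibition at 10 µM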
T2 sequence (P08246 whole entry): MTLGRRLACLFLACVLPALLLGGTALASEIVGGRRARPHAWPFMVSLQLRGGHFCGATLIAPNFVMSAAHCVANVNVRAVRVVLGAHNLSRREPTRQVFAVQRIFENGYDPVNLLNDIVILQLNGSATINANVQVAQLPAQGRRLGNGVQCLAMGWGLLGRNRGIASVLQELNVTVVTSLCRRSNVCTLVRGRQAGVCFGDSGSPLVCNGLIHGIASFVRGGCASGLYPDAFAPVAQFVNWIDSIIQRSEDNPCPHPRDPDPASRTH

Vasopressin V1a receptor, sequence (P37288 whole entry): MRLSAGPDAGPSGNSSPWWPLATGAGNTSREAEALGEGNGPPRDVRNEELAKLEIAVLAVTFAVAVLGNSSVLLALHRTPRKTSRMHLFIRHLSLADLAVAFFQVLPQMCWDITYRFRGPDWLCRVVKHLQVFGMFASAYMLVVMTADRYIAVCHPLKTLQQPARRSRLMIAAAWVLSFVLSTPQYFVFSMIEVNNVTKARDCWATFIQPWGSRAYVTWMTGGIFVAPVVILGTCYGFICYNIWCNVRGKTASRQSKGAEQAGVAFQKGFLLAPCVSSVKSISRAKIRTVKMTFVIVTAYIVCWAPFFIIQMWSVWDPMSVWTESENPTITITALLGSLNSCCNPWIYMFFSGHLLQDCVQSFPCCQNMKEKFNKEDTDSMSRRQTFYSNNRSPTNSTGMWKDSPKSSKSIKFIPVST

Row | Compound | IC50 [1] | IC50 [2] | IC50 [3] | IC50 [4] | IC50 [5] | Ki [5] | IC50 [6] | Ki [1] | IC50 ([2]; read-out: IC50) | Ki ([2]; read-out: Ki) | Ki [3] | Ki [4] | Ki [6] | Ki [2] | IC50 ([4]; read-out: IC50) | Ki ([4]; read-out: Ki)
1 | Oc1cccc(O)c1O [PYROGALLOL] | Not Active | Not Active | Not Active | Not Active | Not Active | Not Active | Not Active |  |  |  |  |  |  |  |  | 
2 | AURANOFIN | Not Active |  | Not Active | Not Active | Not Active | Not Active | Not Active | Not Active | 0.659 µM | 0.224 µM | Not Active | Not Active | Not Active |  |  | 
3 | GADOPENTETATE DIMEGLUMINE | Not Active | Not Active | Not Active | Not Active | Not Active | Not Active | Not Active | Not Active |  |  | Not Active | Not Active | Not Active | Not Active |  | 
4 | GENTAMICIN | Not Active | Not Active | Not Active | Not Active | Not Active | Not Active | Not Active | Not Active |  |  | Not Active | Not Active | Not Active | Not Active |  | 
5 | GRAMICIDIN | Not Active | Not Active | Not Active |  | Not Active | Not Active | Not Active | Not Active |  |  | Not Active |  | Not Active | Not Active | 2.98 µM | 1.83 µM
6 | NYSTATIN | Not Active | Not Active | Not Active | Not Active | Not Active | Not Active | Not Active | Not Active |  |  | Not Active | Not Active | Not Active | Not Active |  | 
